± gives the expanded uncertainty stated by the source.
Columns and labels:
[1] = DTA
[2] = Molar enthalpy of transition or fusion; conditions: DSC

Row | Compound | Triple point temperature ([1]; Crystal 1) [K] | Triple point temperature ([1]; Crystal 2) [K] | Triple point temperature ([1]; Smectic liquid crystal) [K] | Molar enthalpy of transition or fusion ([2]; Crystal 1) [kcal/mol] | Molar enthalpy of transition or fusion ([2]; Crystal 2) [kcal/mol] | Molar enthalpy of transition or fusion ([2]; Smectic liquid crystal) [kcal/mol]
1 | CCCCCC(=O)[O-].CCCCCC(=O)[O-].CCCCCC(=O)[O-].[La+3] [lanthanum(III) hexanoate] | 406.85 ± 10 | 380.45 ± 10 | 459.05 ± 0.5 | 1.1 ± 0.129 | 1.49 ± 0.134 | 0.32 ± 0.124
2 | CCCCC(=O)[O-].CCCCC(=O)[O-].CCCCC(=O)[O-].[La+3] [lanthanum(III) pentanoate] | 410.95 ± 10 | 366.15 ± 10 | 451.65 ± 10 | 1.69 ± 0.136 | – | 0.717 ± 0.127

Source: the NIST ThermoML archive (doi:10.1016/j.tca.2015.05.002)
